≈ marks a conversion by molar mass, not a printed value. Where a SMILES comes first, the peptide text is derived from it. [ ]: non-standard residue; d: D form. Orn = NCCC[C@H](N)C(=O)O

In one assay the test system is S. aureus (MRSA). The format is cell-based, Staphylococcus aureus. As to the method: (§1) Antimicrobial activity was determined by macrobroth dilution antimicrobial susceptibility testing. Solutions of the cyclic decapeptides (Loloatin A, B and C) and a control (vancomycin) were prepared in tryptic soy broth. Initially, a 100 μg/ml solution of each compound was tested. When inhibition of target microorganism was detected, serial two-fold dilutions of the compound in broth were tested to determine the minimal inhibitory concentration (MIC) of each compound for each target organisms. Target organisms tested are listed below in Table 3, and included methicillin resistant Staphylococcus aureus, vancomycin resistant Enterococcus sp. Escherichia coli, multiply drug resistant Pseudomonas aeruginosa; Stenofrophomonas maltophilia and Candida albicans. Turbidity standardized suspensions of each organism were prepared according to accepted protocols using a 0.5 McFarland turbidity standard, and these standardized suspensions were used to inoculate the tubes containing the compounds. Activity of a compound was indicated by lack of growth (turbidity) of one or more of the target organisms. See Woods, G. L. and Washington, J. A., “Antibacterial susceptibility tests: dilution and disk diffusion methods, Manual of Clinical Microbiology (6th Ed.), Murray, Baron, Pfaller, Tenover and Yolken Eds.), ASM Press, Washington D.C., 1995, pp. 1327-1341. Other compounds of the invention may be screened and evaluated for antibiotic activity in the same manner.

Assay [1] deals with Enterococcus faecalis (13242). Put plainly: microbe, parasite or virus in culture. The format is cell-based. The note with it: for BROTH DILUTION MIC: 13242. As to the method: as §1
For orientation: Broth dilution looks for growth in wells or tubes with falling amounts of substance.

Assay [2] relates to Enterococcus faecalis (ATCC51299). Put plainly: microbe, parasite or virus in culture. The format is cell-based. The note with it: for BROTH DILUTION MIC: ATCC51299. The procedure:
as §1

Assay [3] has as its system Enterococcus faecium (19007). Put plainly: microbe, parasite or virus in culture. The format is cell-based. The note with it: for BROTH DILUTION MIC: 19007. As to the method: as §1
Assay [4] relates to Enterococcus faecium (F4641). Put plainly: microbe, parasite or virus in culture. The assay is classed as cell-based. The note with it: for BROTH DILUTION MIC: F4641. The procedure:
as §1

A further assay has as its system Enterococcus gallinarum. Put plainly: microbe, parasite or virus in culture. The format is cell-based. The procedure: as §1
The test system of assay [5] is Candida albicans. The assay is classed as cell-based. The procedure: as §1
Assay [6] has as its system Enterobacter cloacae. The assay is classed as cell-based. As to the method:
as §1

Assay [7] has as its system Escherichia coli. The assay is classed as cell-based. The procedure:
as §1

Assay [8] deals with Group A Streptococcus (19615). The assay is classed as cell-based. As to the method: as §1
Assay [9] has as its system Group B Streptococcus (12401). The assay is classed as cell-based. The procedure: as §1
Assay [10] deals with Pseudomonas aeruginosa. The assay is classed as cell-based. As to the method: as §1
In assay [11] the test system is Stenotrophomonas maltophilia. The assay is classed as cell-based. The procedure: as §1
For the next assay, the system named is MRSA 034. Put plainly: In-vitro Microbiology of Fraction 73 (MIC/MBZ). The format is cell-based, Staphylococcus aureus. An excerpt: (§2) The complex reaction mixture from Method C was chromatographed on reverse phase HPLC, and a microtiter plate assay was run throughout the entire chromatogram to identify active materials.
The subject of the next assay is P.a. 028. Put plainly: In-vitro Microbiology of Fraction 73 (MIC/MBZ). The assay is classed as cell-based, Pseudomonas aeruginosa.
From the text: as §2

Assay [12] deals with Candida albicans. The assay is classed as cell-based. The procedure: (§3) Antimicrobial activity was determined by macrobroth dilution antimicrobial susceptibility testing. A solution of Loloatin B was prepared in tryptic soy broth. Initially, a […] solution of the peptide was tested. If inhibition of a target microorganism was detected, serial two-fold dilutions (in broth) of the Loloatin B solutions were tested to determine the minimal inhibitory concentration (MIC) of Loloatin B for each target organism Target organisms tested are identified in Table 2. Turbidity standardized suspensions of each organism were prepared according to accepted protocols using a 0.5 McFarland turbidity standard, and these standardized suspensions were used to inoculate a tube containing Loloatin B. Activity of Loloatin B was indicated by lack of growth (turbidity) of one or more of the target organisms.
(§4) See Woods, G. L. et al., “Antibacterial susceptibility tests: dilution and disk diffusion methods, Manual of Clinical Microbiology (6^thEd.), Murray, Baron, Pfaller, Tenover and Yolken (Eds.), ASM Press, Washington D.C., 1995, pp. 1327-1341.
This is another data set of the same source.

In assay [13] the test system is Enterobacter cloacae. The format is cell-based. The procedure: as §3, §4
This is another data set of the same source.

Assay [14] deals with Escherichia coli. The format is cell-based. As to the method: as §3, §4
This is another data set of the same source.

Assay [15] has as its system Methicillin resistant Staphylococcus aureus. The assay is classed as cell-based. As to the method:
as §3, §4

The subject of assay [16] is Penicillin resistant Streptococcus pneumoniae. The format is cell-based. The procedure:
as §3, §4

In assay [17] the test system is Pseudomonas aeruginosa. The assay is classed as cell-based. As to the method:
as §3, §4
The source holds these as a separate data set.

For assay [18], the system named is Vancomycin resistant Enterococcus faecalis. The assay is classed as cell-based. The procedure: as §3, §4
The test system of another assay is Xanthomonas maltophilia. The format is cell-based. As to the method:
as §3, §4

The nature of assay [19]: Microtiter plate assay of HPLC fractions to identify active materials. The assay is classed as cell-based. The note with it: reverse phase HPLC fractions of Method C cyclization mixture.
From the text: as §2

Setting [20] is: Enterococcus faecium, read-out: BROTH DILUTION MIC.

In the case of `CC(C)C[C@@H]1NC(=O)[C@H](CCCN)NC(=O)[C@H](C(C)C)NC(=O)[C@H](Cc2ccc(O)cc2)NC(=O)[C@H](CC(=O)O)NC(=O)[C@H](CC(N)=O)NC(=O)[C@@H](Cc2ccccc2)NC(=O)[C@H](Cc2ccccc2)NC(=O)[C@@H]2CCCN2C(=O)[C@@H](Cc2ccc(O)cc2)NC1=O` [Loloatin A, cyclo[L-Val-L-Orn-L-Leu-D-Tyr-L-Pro-L-Phe-D-Phe-L-Asn-L-Asp-L-Tyr]] (cyclo(DYV[Orn]L[dY]PF[dF]N)), the “BROTH DILUTION MIC” value (in the assay with S. aureus (MRSA); in [1]; in assay [2]; in [3]; in assay [4]; in the assay with Enterococcus gallinarum) was 2 to 4 mg/L in each case. Also, the “BROTH DILUTION MIC” value is 16 mg/L in the assay on Candida albicans [5]; greater than 100 mg/L with Enterobacter cloacae [6]; greater than 100 mg/L in the assay on Escherichia coli [7]; less than 0.25 mg/L in [8]; less than 1 mg/L in [9]; greater than 100 mg/L in the assay on Pseudomonas aeruginosa [10]. Further, the “BROTH DILUTION MIC” value in [11] is greater than 100 mg/L.

Take `CC(C)C[C@@H]1NC(=O)[C@H](CCCN)NC(=O)[C@H](C(C)C)NC(=O)[C@H](Cc2c[nH]c3ccccc23)NC(=O)[C@H](CC(=O)O)NC(=O)[C@H](CC(N)=O)NC(=O)[C@@H](Cc2ccccc2)NC(=O)[C@H](Cc2ccccc2)NC(=O)[C@@H]2CCCN2C(=O)[C@@H](Cc2ccc(O)cc2)NC1=O` [Loloatin B, cyclo [L-Val-L-Orn-L-Leu-D-Tyr-L-Pro-L-Phe-D-Phe-L-Asn-L-Asp-L-Trp]] (cyclo(V[Orn]L[dY]PF[dF]NDW)): the MBZ was 8.0 with MRSA 034 and greater than 128 in the assay on P.a. 028. Also, the MIC with MRSA 034 is recorded as 8.0; with P.a. 028, greater than 128. Also, the “Minimum Inhibitory Concentration” value was greater than 100 µg/mL in the assay with Candida albicans [12]; greater than 100 µg/mL with Enterobacter cloacae [13]; greater than 100 µg/mL with Escherichia coli [14]; less than 2 µg/mL in assay [15]; less than 2 µg/mL in [16]; greater than 100 µg/mL in the assay with Pseudomonas aeruginosa [17]. For the same molecule, the “Minimum Inhibitory Concentration” value is less than 2 µg/mL in assay [18] and greater than 100 µg/mL in the assay on Xanthomonas maltophilia. Moreover, the “BROTH DILUTION MIC” value (with S. aureus (MRSA); in [1]; in assay [2]; in [3]; in assay [4]; in the assay with Enterococcus gallinarum) was 2 to 4 mg/L in each case. For the same molecule, the “BROTH DILUTION MIC” value is 16 mg/L with Candida albicans [5]; greater than 100 mg/L in the assay on Enterobacter cloacae [6]; greater than 100 mg/L in the assay on Escherichia coli [7]; less than 0.25 mg/L in assay [8]; less than 1 mg/L in assay [9]; greater than 100 mg/L in [11]. In addition, the “biological activity of HPLC fraction (in words)” value in [19] was “exhibited the desired biological activity”.

With `CC(C)C[C@@H]1NC(=O)[C@H](CCCN)NC(=O)[C@H](C(C)C)NC(=O)[C@H](Cc2c[nH]c3ccccc23)NC(=O)[C@H](CC(=O)O)NC(=O)[C@H](CC(N)=O)NC(=O)[C@@H](Cc2ccccc2)NC(=O)[C@H](Cc2c[nH]c3ccccc23)NC(=O)[C@@H]2CCCN2C(=O)[C@@H](Cc2ccc(O)cc2)NC1=O` [Loloatin C, cyclo [L-Val-L-Orn-L-Leu-D-Tyr-L-Pro-L-Trp-D-Phe-L-Asn-L-Asp-L-Trp]] (cyclo(DWV[Orn]L[dY]PW[dF]N)), the “BROTH DILUTION MIC” value with S. aureus (MRSA) was 0.5 to 1 mg/L; in assay [1] it was 1 to 2 mg/L; in assay [2] it was 2 to 4 mg/L; in [3], 2 mg/L; in assay [4], 2 mg/L; in the assay on Enterococcus gallinarum it was 1 to 2 mg/L. Also, the “BROTH DILUTION MIC” value with Candida albicans [5] was 16 mg/L; in the assay on Enterobacter cloacae [6] it was greater than 100 mg/L; with Escherichia coli [7], 1 to 2 mg/L; in [8] it was less than 0.25 mg/L; in assay [9], less than 0.25 mg/L; in the assay on Pseudomonas aeruginosa [10], greater than 100 mg/L. For the same molecule, the “BROTH DILUTION MIC” value in assay [11] was greater than 100 mg/L. Besides, the “activity against Escherichia coli (in words)” value in the assay with Escherichia coli [7] (Escherichia coli, a gram negative rod bacteria, comment on Table 3) was “excellent activity”.

Take `CN[C@H](CC(C)C)C(=O)N[C@H]1C(=O)N[C@@H](CC(N)=O)C(=O)N[C@H]2C(=O)N[C@H]3C(=O)N[C@H](C(=O)N[C@H](C(=O)O)c4cc(O)cc(O)c4-c4cc3ccc4O)[C@H](O)c3ccc(c(Cl)c3)Oc3cc2cc(c3O[C@@H]2O[C@H](CO)[C@@H](O)[C@H](O)[C@H]2O[C@H]2C[C@](C)(N)[C@H](O)[C@H](C)O2)Oc2ccc(cc2Cl)[C@H]1O` [Vancomycin, vancomycin, reference compound]: the MIC is greater than 100 mg/L in assay [1] (Enterococcus faecalis, read-out: BROTH DILUTION MIC); 20 mg/L (≈ 13.8 µM) in assay [2] (Enterococcus faecalis, ATCC51299, read-out: BROTH DILUTION MIC); greater than 100 mg/L in assay [3] (setting [20]); 6 mg/L (≈ 4.14 µM) in assay [4] (setting [20]); 6 mg/L (≈ 4.14 µM) in the assay on Enterococcus gallinarum (Enterococcus gallinarum, GALLINARUM, read-out: BROTH DILUTION MIC).

Source of the values: patent US6790829B1, “Cyclic decapeptide antibiotics” (priority 1998, dated 2004).
